Values quoted from earlier work, collected in paper PMC11317963 (Neural Regeneration Research, 2024).

Legend:
[1] = tested on: permanent middle cerebral artery occlusion model; settings: compared with VEGF; ref Pignataro et al., 2015
[2] = ref Diana et al., 2008; Finetti et al., 2012
[3] = ref Zhang et al., 2000

thermal stability [2] | Substance | vessel permeability [1] | half-life in vivo [3]
relatively high thermal stability | KLTWQELYQLKYKGI [QK] | decrease vessel permeability compared with VEGF | –
– | VEGF | – | relatively short
